According to patent US20180201592A1, “2-AMINO-1,3,4-THIADIAZINE AND 2-AMINO-1,3,4-OXADIAZINE BASED ANTIFUNGAL AGENTS” (F2G Limited, priority 2015, published 2018):

Assays:
Details in all cases: banded MIC grade
Aspergillus fumigatus = assay: Minimum inhibitory concentration, YAG medium; assay type: cell-based
Method in brief: (§1)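 MIC, in mg/L, defined as the lowest drug level inhibiting growth by >70% relative to drug-free wells, judged by OD 485 nm after 24 hrs at 35° C. Spores (1-2×10^4 cfu/mL) were grown in YAG medium against doubling dilutions, usually 50-0.05 mg/L, repeated at 0.5-0.0005 mg/L where needed.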

A. fumigatus 210 [1] = assay: Minimum inhibitory concentration, YAG medium; assay type: cell-based, Aspergillus fumigatus
Method in brief: as §1

A. fumigatus = assay: Minimum inhibitory concentration, RPMI medium; assay type: cell-based
Method: (§2) Between 1 and 5 mgs of compound were accurately weighed out into a sterile Eppendorf tube. The compound was dissolved in DMSO to give a solution containing 5 mg/mL. Tubes were stored at −20° C. until required.
(§3) On the day of testing thawed solutions were vortex mixed to ensure homogeneity. 30 μL of solution was removed and added to 570 μL of sterile water in a separate sterile Eppendorf. The thoroughly mixed solution was used to prepare a series of doubling dilutions in water, in a deep well plate. Thirteen replicate plates were prepared using a Minitrak by aspirating 20 μL from each well into eleven clear polystyrene 96 well plates.
(§4) Assays were also performed in RPMI medium (Roswell Park Memorial Media 1640). To perform MIC tests in this medium, dilutions of compounds are prepared in microtitre plates as described above. Fungal strains to be tested are grown and harvested in an identical manner to that described above, and each organism suspension was diluted in RPMI medium, typically containing 2% glucose and 0.135 M MOPS buffer (pH 7.0) to 0.5-2×10^4cfu/mL, rather than in YAG medium. 80 μL of an organism suspension was added to each well of the plate containing drug dilutions.
(§5) This produced MIC plates with a drug range 50-0.05 mg/L and organism inocula of 1-2×10^4 cfu/mL. All plates were incubated for 24-48 hrs at 35° C. Growth was assessed by monitoring the optical density at 485 nm for each well. The MIC of a compound is the lowest drug concentration that inhibits growth of an organism by >80% compared with a drug free control. The following organisms were tested: C. albicans, C. parapsilosis, C. tropicalis, C. glabrata, C. krusei, A. niger, A. fumigatus, A. terreus, A. flavus, A. terreus 49, and A. fumigatus 210.

A. fumigatus 210 [2] = assay: Minimum inhibitory concentration, RPMI medium; assay type: cell-based
Method: as §2, §3, §4, §5

C. glabrata = assay: Minimum inhibitory concentration, RPMI medium; assay type: cell-based
Method in brief: (§6)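 Growth was measured by OD at 485 nm after 24-48 hrs at 35° C in RPMI 1640 medium. Compound was serially diluted twofold in water, starting from a 5 mg/mL DMSO stock solution.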

A. terreus 49 [3] = assay: Minimum inhibitory concentration, RPMI medium; assay type: cell-based
Method in brief: as §6

A. niger = assay: Minimum inhibitory concentration, RPMI medium; assay type: cell-based
Method in brief: as §6

C. tropicalis = assay: Minimum inhibitory concentration, RPMI medium; assay type: cell-based
Method in brief: as §6

C. parapsilosis = assay: Minimum inhibitory concentration, RPMI medium; assay type: cell-based
Method in brief: as §6

C. albicans = assay: Minimum inhibitory concentration, RPMI medium; assay type: cell-based
Method in brief: as §6

C. krusei = assay: Minimum inhibitory concentration, RPMI medium; assay type: cell-based
Method in brief: as §6

A. terreus = assay: Minimum inhibitory concentration, RPMI medium; assay type: cell-based
Method in brief: as §6

A. flavus = assay: Minimum inhibitory concentration, RPMI medium; assay type: cell-based
Method in brief: as §6

Aspergillus terreus = assay: Minimum inhibitory concentration, YAG medium; assay type: cell-based
Method in brief: (§7)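 MIC in mg/L, from OD485 growth read-out after 24 hrs at 35° C in YAG medium with Aspergillus spores. Doubling dilutions in water made from a 5 mg/mL DMSO stock.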

Aspergillus flavus = assay: Minimum inhibitory concentration, YAG medium; assay type: cell-based
Method in brief: as §7

Aspergillus niger = assay: Minimum inhibitory concentration, YAG medium; assay type: cell-based
Method in brief: as §7

A. terreus 49 [4] = assay: Minimum inhibitory concentration, YAG medium; assay type: cell-based, Aspergillus terreus
Method in brief: as §7

Structure (SMILES) | MIC grade, A. FUMIGATUS, YAG media (Aspergillus fumigatus) | MIC grade, A. FUMIGATUS 210, YAG media (A. fumigatus 210 [1]) | MIC grade, A. FUMIGATUS, RPMI media (A. fumigatus) | MIC grade, A. FUMIGATUS 210, RPMI media (A. fumigatus 210 [2]) | MIC grade, C. GLABRATA, RPMI media (C. glabrata) | MIC grade, A. TERREUS 49, RPMI media (A. terreus 49 [3]) | MIC grade, A. NIGER, RPMI media (A. niger) | MIC grade, C. TROPICALIS, RPMI media (C. tropicalis) | MIC grade, C. PARAPSILOSIS, RPMI media (C. parapsilosis) | MIC grade, C. ALBICANS, RPMI media (C. albicans) | MIC grade, C. KRUSEI, RPMI media (C. krusei) | MIC grade, A. TERREUS, RPMI media (A. terreus) | MIC grade, A. FLAVUS, RPMI media (A. flavus) | MIC grade, A. TERREUS, YAG media (Aspergillus terreus) | MIC grade, A. FLAVUS, YAG media (Aspergillus flavus) | MIC grade, A. NIGER, YAG media (Aspergillus niger) | MIC grade, A. TERREUS 49, YAG media (A. terreus 49 [4])
CCCCc1cccc(COCCCCC2=NN=C(N)SC2)c1 | 1 (1: ≥5 mg/L) | 1 (1: ≥5 mg/L) | 2 (2: 5-20 mg/L) | 1 (1: ≥20 mg/L) | 1 (1: ≥20 mg/L) | 2 (2: 5-20 mg/L) | 2 (2: 5-20 mg/L) | 2 (2: 5-20 mg/L) | 2 (2: 5-20 mg/L) | 2 (2: 5-20 mg/L) | 2 (2: 5-20 mg/L) | 2 (2: 5-20 mg/L) | 2 (2: 5-20 mg/L) | 2 (2: 1-5 mg/L) | 3 (3: 0.2-1 mg/L) | 3 (3: 0.2-1 mg/L) | 2 (2: 1-5 mg/L)
NC1=NN=C(CCCCOCc2ccc(Br)cc2)CS1 | 4 (4: <0.2 mg/L) | 4 (4: <0.2 mg/L) | 2 (2: 5-20 mg/L) | 2 (2: 5-20 mg/L) | 4 (4: <1 mg/L) | 3 (3: 1-5 mg/L) | 3 (3: 1-5 mg/L) | 4 (4: <1 mg/L) | 4 (4: <1 mg/L) | 4 (4: <1 mg/L) | 4 (4: <1 mg/L) | 4 (4: <1 mg/L) | 4 (4: <1 mg/L) | 4 (4: <0.2 mg/L) | 4 (4: <0.2 mg/L) | 4 (4: <0.2 mg/L) | 4 (4: <0.2 mg/L)
NC1=NN=C(CCCCOCc2ccc(Cl)cc2F)CS1 | 4 (4: <0.2 mg/L) | 4 (4: <0.2 mg/L) | 2 (2: 5-20 mg/L) | 2 (2: 5-20 mg/L) | 3 (3: 1-5 mg/L) | 3 (3: 1-5 mg/L) | 3 (3: 1-5 mg/L) | 4 (4: <1 mg/L) | 4 (4: <1 mg/L) | 4 (4: <1 mg/L) | 4 (4: <1 mg/L) | 3 (3: 1-5 mg/L) | 4 (4: <1 mg/L) | 4 (4: <0.2 mg/L) | 4 (4: <0.2 mg/L) | 3 (3: 0.2-1 mg/L) | 4 (4: <0.2 mg/L)
NC1=NN=C(CCCCSCc2ccc(Cl)cc2)CS1 | 3 (3: 0.2-1 mg/L) | 3 (3: 0.2-1 mg/L) | 2 (2: 5-20 mg/L) | 2 (2: 5-20 mg/L) | 2 (2: 5-20 mg/L) | 2 (2: 5-20 mg/L) | 3 (3: 1-5 mg/L) | 3 (3: 1-5 mg/L) | 3 (3: 1-5 mg/L) | 3 (3: 1-5 mg/L) | 3 (3: 1-5 mg/L) | 2 (2: 5-20 mg/L) | 3 (3: 1-5 mg/L) | 4 (4: <0.2 mg/L) | 4 (4: <0.2 mg/L) | 4 (4: <0.2 mg/L) | 4 (4: <0.2 mg/L)
